The text below walks through data of US11712404B2 (priority 2018, dated 2023).

SMILES strings stand for the structures.

The conditions of data set [1]: at 30° C. and 1 Hz; cited from earlier work.
A short description of data set [2]: Water sorption and solubility (ISO 4049). It counts as physicochemical. Particulars: for water sorption: one week in water. The protocol: The same samples used in the polymerization kinetics test were stored dry at room temperature for 24 hs, then used for the water sorption (WS) and solubility (SL) test, according to ISO 4049 (REF). The initial mass (M1) was recorded and the volume calculated following the equation: V=h×πr^2 where h (mm) is the sample height and r (mm) is the sample radius.
Each sample was placed in a tight-close glass vial with 5 glass beads on the bottom to ensure the whole surface of the sample was exposed to water, and then the vial was filled by 5 ml of double-distilled water and kept closed for one week. The samples were then removed from water, patted dry and weighed again (M2) and placed in a desiccator until mass stabilization (M3) was observed. Water sorption (WS) and solubility (SL) were calculated according to the equations:
[formula] and the results were converted into […], where V is the volume of the specimen. Dentin Microtensile Bond Strength
The same samples used in the polymerization kinetics were tested for water sorption and solubility, according to [25]. Briefly, the mass of the disks was determined before (m1) and after immersion in distilled water for one week (m2). The disks were then stored in a desiccator until the mass stabilized (m3), which took around one week. Water sorption (WS) and solubility (SL) were calculated using the following equations:
[formula] where V is the volume of the specimen. 2.4 Microtensile bond strength

Data set [3] is described as follows: Neat monomer incubation in water, remaining monomer by HPLC. Particulars: neat compound incubated in water.
Description: (§1) Monomers were prepared to a concentration of 0.15 mM for water and CE/PCE incubations and incubated at 72 hours at 37° C.
(§2) Degradation from CE and PCE was monitored via high performance liquid chromatography (HPLC) and measured via initial and post incubation monomer area difference.
(§3) This was calculated in the decrease in absorbance area measured by HPLC at 227 nm wavelength. Degradation was further verified by the detection of methacrylic acid.
Data set [4] has as its target T1, matrix metalloproteinase 2 (MMP-2) (Homo sapiens, UniProt P08253).
T1 sequence (P08253 110-660): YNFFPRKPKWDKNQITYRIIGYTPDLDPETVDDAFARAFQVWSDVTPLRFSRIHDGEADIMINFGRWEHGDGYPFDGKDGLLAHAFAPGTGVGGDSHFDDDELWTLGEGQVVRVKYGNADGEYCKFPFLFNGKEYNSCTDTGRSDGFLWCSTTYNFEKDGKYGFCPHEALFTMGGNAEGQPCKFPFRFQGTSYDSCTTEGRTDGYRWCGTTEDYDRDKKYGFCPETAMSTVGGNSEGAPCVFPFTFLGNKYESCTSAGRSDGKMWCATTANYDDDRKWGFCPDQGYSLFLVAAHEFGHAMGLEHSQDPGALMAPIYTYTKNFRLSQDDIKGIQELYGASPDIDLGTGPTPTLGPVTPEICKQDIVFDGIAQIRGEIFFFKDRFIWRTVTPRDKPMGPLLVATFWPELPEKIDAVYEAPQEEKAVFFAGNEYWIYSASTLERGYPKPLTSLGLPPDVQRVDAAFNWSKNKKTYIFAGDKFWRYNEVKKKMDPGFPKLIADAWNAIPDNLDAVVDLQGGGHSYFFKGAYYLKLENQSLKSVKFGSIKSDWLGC
Description: MMP-2 incubation, fluorometric assay. It counts as biochemical. Particulars: 0.02 mM monomer, 24 hours at 37° C., fluorescence Ex/Em=490/525 nm. The protocol: MMP-2 incubation was prepared at 0.02 mM monomer concentration and incubated at 24 hours at 37° C. and degradation from MMP was measured via a fluorometric assay utilizing a plate reader.
BB94 is a commercial, known inhibitor of MMP-2. Plate reader fluorescence was set at Ex/Em=490/525 nm. Lower fluorescence signal indicates enzyme inhibition. Initial study indicate HEMA and HEMAM inhibition of MMP-2.

A short description of data set [5]: Monomer degradation in low pH environment (1H NMR). Particulars: neat monomer, 30 days.
Data set [6] has as its system cholinesterase (CE) and pseudocholinesterase (PCE). In words: Neat monomer incubation with cholinesterase / pseudocholinesterase, HPLC. Particulars: neat compound in the presence of cholinesterase.
Description: as §1, §2, §3

Consider `C=C(C)C(=O)OCC(O)COc1ccc(C(C)(C)c2ccc(OCC(O)COC(=O)C(=C)C)cc2)cc1` (stereo not shown) [BisGMA, Bisphenol A glycerolate dimethacrylate], for which the initial viscosity in data set [1] is listed as 1369 Pa·s.

For `C=CC(=O)N(C)C` [DMAM, N.N-Dimethylacrylamide], the results for the solubility in data set [2] (BisGMA co-polymerization) and in data set [2] (UDMA co-polymerization) were 52.3 μg/mm3 and 44.3 μg/mm3, respectively. The water sorption in data set [2] (UDMA mixtures) was found to be 224.7 μg/mm3.

As for `C=CC(=O)N(C)CCO` [HEM, N-(2-hydroxyethyl)-N-methylacrylamide], the values for the water sorption in data set [2] (BisGMA co-polymerizations) and in data set [2] (UDMA mixtures) were 38.7 μg/mm3 and 203.5 μg/mm3, respectively.

In the case of `C=C(C)C(=O)OCCO` [HEMA, 2-Hydroxyethyl methacrylate], the “degradation under aqueous conditions” value in data set [3] came to 8%. In addition, the water sorption in data set [2] (UDMA mixtures) is listed as 102.8 μg/mm3. In data set [4], the “inhibition of MMP-2” value is “inhibition”. Besides, the degradation in data set [5] (pH 1, 37° C.) was 69.0 (2.3) %; in data set [5] (pH 2, 37° C.), 10.5 (0.7) %. Further, the “degraded monomers under enzymatic conditions” value (shortened to “degraded monomers”) in data set [6] is on record as 52%.

On to `C=C(C)C(=O)NCCO` [HEMAM, N-Hydroxyethyl methacrylamide], for which the “inhibition of MMP-2” value in data set [4] is listed as “inhibition”. The degradation in data set [5] (pH 1, 37° C.) was 6.0 (0) %; in data set [5] (pH 2, 37° C.), “did not show any significant amount of degradation products”.

Regarding `C=C(C)C(=O)NC(CC)CO` (stereo not shown) [Monomer 2EM, N-(1-hydroxybutan-2-yl)methacrylamide], the “degradation under aqueous conditions” value in data set [3] is listed as “virtually no degradation”. Moreover, in data set [2] (UDMA mixtures), the water sorption amounted to 102.7 μg/mm3. In data set [6], the “degraded monomers” value was found to be 22%.

With `C=C(C)C(=O)NC(C)(C)CO` [Monomer 2dMM, N-(1-hydroxy-2-methylpropan-2-yl)methacrylamide], the “degradation under aqueous conditions” value in data set [3] is recorded as “virtually no degradation”. Further, the water sorption in data set [2] (UDMA mixtures) came to 102.7 μg/mm3. Further, the “degraded monomers” value in data set [6] came to 8%.

Turning to `C=C(C)C(=O)OCCOC(=O)NCCC(C)CC(C)(C)CNC(=O)OCCOC(=O)C(=C)C` (stereo not shown) [UDMA, urethane dimethacrylate], the initial viscosity in data set [1] is 28 Pa·s.
